Results on four molecules are retold here after US7723320B2, “Use of estrogen compounds to increase libido in women” (Pantarhei Bioscience B.V., priority 2001, dated 2010).

The target in experiment [1] is T1, human sex Hormone Binding Globulin (SHBG) (Homo sapiens, UniProt P04278).
T1 construct: made in house; host or cells: transgenic mouse (purified from serum)
T1 sequence (P04278 30-402): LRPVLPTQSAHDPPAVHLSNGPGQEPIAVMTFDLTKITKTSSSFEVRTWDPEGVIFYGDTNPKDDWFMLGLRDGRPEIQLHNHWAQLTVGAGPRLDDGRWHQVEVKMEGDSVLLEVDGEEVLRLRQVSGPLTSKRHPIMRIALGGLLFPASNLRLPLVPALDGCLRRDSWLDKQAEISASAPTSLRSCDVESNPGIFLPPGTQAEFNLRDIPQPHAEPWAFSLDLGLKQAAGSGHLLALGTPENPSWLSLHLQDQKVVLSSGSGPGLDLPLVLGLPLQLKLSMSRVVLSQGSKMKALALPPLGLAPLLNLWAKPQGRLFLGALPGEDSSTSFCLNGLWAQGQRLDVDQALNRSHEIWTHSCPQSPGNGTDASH
Put plainly: Competitive steroid-binding assay, SHBG. Conditions: [3H]DHT or [3H]estradiol as labeled ligands. As to the method:
Human SHBG was treated for 30 min at room temperature with a dextran-coated charcoal (DCC) suspension in phosphate buffered saline (PBS) to remove any steroid ligand. After centrifugation (2,000×g for 10 min) to sediment the DCC, the supernatant containing the human SHBG was diluted in PBS to a concentration of 1 nM based on its steroid binding capacity.
The average amounts of [^3H]labeled ligands bound to SHBG at each concentration of competitor (B) were expressed as a percentage of the average amounts of [^3H]labeled ligands bound to SHBG in the absence of competitor (B0), and were plotted against the concentration of competitor in each assay tube.

For experiment [2], the system named is ovariectomized adult rats. Put plainly: Vaginal cornification bioassay in ovariectomized rats. In kind it is in vivo, rat. Conditions: 0.05 mg/kg/day. An excerpt:
Uterine weight increase in the rat is more commonly used as a measure of estrogenicity. […] In the early 1920s it was discovered that follicular fluid from the pig ovary contained a factor(s) that caused cornification/keratinization of the vaginal epithelium in the rat (Allen and Doisy, 1923, JAMA, 81,819-821; Allen and Doisy, 1924, Am. J. Physiol., 69, 577-588). The so-called vaginal cornification response in rats subsequently provided a bioassay for testing estrogenicity. Vaginal epithelial cornification/keratinization in ovariectomized rats can be produced only by compounds considered to be true estrogens (Jones et al, 1973, Fert. Steril. 24, 284-291). […] Adult intact female CD rats were ovariectomized to induce estrogen deficiency. […] Castrate vaginal smears are indicative that complete ovanectomy was achieved. Treatment commenced following completion of the 7 days of smearing (day 0=first day of dosing). Animals were dosed, once daily for 7 consecutive days. Daily vaginal lavages continued to be obtained for 7 days after dosing was initiated in order to detect vaginal cornification, as an indication of an estrogenic response. A drop of vaginal washings was placed on a glass slide and examined by light microscopy to detect the presence or absence of cornified epithelial cells. Vaginal lavages were obtained prior to dosing on days 0-6 and prior to necropsy on day 7. The vaginal cornification bioassay was performed in order to determine the estrogenic profile of E4 when given subcutaneously (sc) to ovariectomized adult rats. E2 was used as a positive control. […] The vaginal cornification bioassay was performed in order to determine the estrogenic profile of E4 when given orally (po) to ovariectomized adult rats. EE was used as a positive control. […] A vaginal estrogenic response occurred in all rats (8/8) given 50 μg/kg/day EE po by day 7 (Table 2).

Consider `C[C@]12CCC(=O)C[C@@H]1CC[C@@H]1[C@@H]2CC[C@]2(C)[C@@H](O)CC[C@@H]12` [5α-dihydrotestosterone], for which, in experiment [1], the “relative binding affinity for human SHBG” value is “in this order, show an increased relative binding affinity”.
Consider `C[C@]12CC[C@@H]3c4ccc(O)cc4CC[C@H]3[C@@H]1CC[C@@H]2O` [E2, 17β-estradiol, reference compound], for which the “Number of Rats Exhibiting Estrogenic Response/Number of Rats Treated” value in experiment [2] (sc, Day 0) is 0/8; in experiment [2] (sc, Day 1) it was 0/8; in experiment [2] (sc, Day 2) it was 8/8; in experiment [2] (sc, Day 3), 8/8; in experiment [2] (sc, Day 4) it was 8/8; in experiment [2] (sc, Day 5), 8/8. In addition, the “Number of Rats Exhibiting Estrogenic Response/Number of Rats Treated” value is 8/8 in experiment [2] (sc, Day 6) and 8/8 in experiment [2] (sc, Day 7).
Turning to `C#C[C@]1(O)CC[C@H]2[C@@H]3CCc4cc(O)ccc4[C@H]3CC[C@@]21C` [EE, 17α-ethinylestradiol, reference compound], the “Number of Rats Exhibiting Estrogenic Response/Number of Rats Treated” value was 0/8 in experiment [2] (po, Day 0); 1/8 in experiment [2] (po, Day 1); 3/8 in experiment [2] (po, Day 2); 8/8 in experiment [2] (po, Day 3); 8/8 in experiment [2] (po, Day 4); 8/8 in experiment [2] (po, Day 5). In addition, the “Number of Rats Exhibiting Estrogenic Response/Number of Rats Treated” value in experiment [2] (po, Day 6) is reported as 8/8; in experiment [2] (po, Day 7), 8/8.
Turning to `C[C@]12CC[C@H]3[C@@H](CCC4=CC(=O)CC[C@@]43C)[C@@H]1CC[C@@H]2O` [testosterone], the “relative binding affinity for human SHBG” value in experiment [1] is given as “in this order, show an increased relative binding affinity”.
